Values joined by “and” are separate entries in the source; they are usually repeats but may differ in a detail not shown here. Identical values can stand only once. Like-named read-outs stand apart in the source and are kept apart here.
Tests used:
T. cruzi amastigotes [1] = assay: 24 hour image-based assay; type: cell-based; conditions: Trypanosoma cruzi; for IC50: n of 2, read-out: IC50 value, 24 hours incubation; for Emax: plateau/Emax concentrations, read-out: % activity at the Emax, 24 hours incubation
Procedure: Compounds were added to assay plates as described for the 48 hour assay, although incubation time was decreased to 24 hours. […] Two experimental replicates were performed.

T. cruzi amastigotes [2] = assay: T. cruzi image-based assay (48 hour, intracellular amastigotes in 3T3 host cells); type: cell-based, Trypanosoma cruzi; conditions: for Emax: 48 h; for IC50: intracellular amastigotes in 3T3 cells, retested from DMSO stocks (CF from solid sample, temporal experiments)
Procedure: The assay was performed as previously described. […] One wash was undertaken by using a Multidrop plate dispenser and two washes with a Bravo liquid handling device (Agilent Technologies, USA). Five microlitres of compound were added to plates and incubated for 48 hours. Cells were then fixed and stained with Hoechst (Life Technologies, USA) and HCS CellMaskTM Green (Life Technologies, USA) and image acquisition was performed an OperaTM High Content Screening System (PerkinElmer, USA) at 20 times magnification. […] The maximum activity achievable (Emax) of compounds was determined by taking (or as close to, if concentrations in the Emax were limited) the percentage activity at the mid concentration within the plateau of activity in the concentration response curve (see Supplemental Fig. 1, example NFX). […] Final assay concentrations of compounds ranged from 4.03 μM to 4.03 × 10^-3 μM. […] This was only undertaken for the amastigote assay. Dilutions were prepared with a multichannel pipette ([…], Thermo Fisher Scientific, USA) in 384-well polypropylene plates (Corning, NY, USA). […] Compound IC50 values in the TcCYP51 in vitro assay were calculated in GraFit (Erithacus software) by non-linear slope analysis. All data are presented as mean ± standard deviation. The significance of % clearance of parasites at compound Emax concentrations was calculated in Prism 5.0, using an unpaired student's t-test.

T. cruzi epimastigotes = assay: 120 hour T. cruzi epimastigote assay (PrestoBlue); type: cell-based; conditions: Trypanosoma cruzi
Procedure: Additions were made with a Multidrop dispenser and compounds were added directly following parasite addition. Plates were incubated for 112 hours before the addition 10 µL of PrestoBlue® viability reagent (Thermo Fisher, USA). […] The positive control was NFX at a final concentration of 14.20 µM and 0.433% DMSO as a negative control.

HEK293 cells = assay: HEK293 assay (resazurin); type: cell-based, human; conditions: 120 hours; HEK293 / epimastigote IC50; NA = SI cannot be determined, tested to 79.4 µM
Procedure: […] […] Plates were incubated for 24 hours before the addition of compounds. […] The positive control was 32.5 μM puromycin and the negative control was 0.433% DMSO, slightly different to the T. cruzi assay due to the change in volume, whilst utilising the same stock control plate. […] […] […] This was only undertaken for the amastigote assay. Dilutions were prepared with a multichannel pipette ([…], Thermo Fisher Scientific, USA) in 384-well polypropylene plates (Corning, NY, USA).

3T3 host cells = assay: 3T3 host cell activity in the T. cruzi image-based assay; set-up: species or system mouse; conditions: for CC50: Mus musculus, NIH3T3, 48 hours, no activity up to top concentration, read-out: IC50 value against 3T3 cells used for SI; for SI to 3T3: ratio 3T3 host cell / parasite IC50, 48 hours
Procedure: To calculate compound activity, 12.0 µM NFX was used as a positive control and 0.366% DMSO was used as a negative control. To determine the activity against the host cell, 30.0 µM of puromycin was used as a positive control. The percentage normalised activity was determined using the equation outlined in our previous publication[19] and the reproducibility of the assay was determined using the Z’-factor[20].
The assay was performed as previously described. Briefly, 3T3 cells were seeded at a concentration of 1 × 10^3 cells in 50 µL per well into collagen I coated 384-well plates (PerkinElmer, USA). Following 24 hours incubation at 37 °C and 5% CO2, 10 µL of parasites were added to wells at a multiplicity of infection (MOI) of 5:1 (parasites: host cells) with a Multidrop™ dispenser (Thermo Fisher, USA). Following 24 hours incubation, wells were washed with PBS (containing Mg^2+ and Ca^2+) to remove uninfected parasites. One wash was undertaken by using a Multidrop plate dispenser and two washes with a Bravo liquid handling device (Agilent Technologies, USA). Five microlitres of compound were added to plates and incubated for 48 hours. Cells were then fixed and stained with Hoechst (Life Technologies, USA) and HCS CellMask™ Green (Life Technologies, USA) and image acquisition was performed an Opera™ High Content Screening System (PerkinElmer, USA) at 20 times magnification. The positive control was 12.0 µM NFX and the negative control was 0.366% DMSO.

T. cruzi amastigotes [3] = assay: Wash-off assay to assess parasite survival following compound removal; type: cell-based; conditions: Trypanosoma cruzi, 48 hours incubation, additional 72 hours without compound, read-out: percentage activity at the Emax, wash-off assay
Procedure: The T. cruzi assay 48 hour assay was performed. Following, plates were washed 5 times with PBS (containing Mg^2+ and Ca^2+) on a Bravo liquid handler to remove compound pressure. Plates were incubated for an additional 72 hours and wells were washed 5 times before fluorescent labels were added. Plates were imaged on an Opera confocal-based high-content system with 7 fields per well acquired, at 20 times magnification. […] Four experimental replicates were undertaken.

T. cruzi amastigotes [4] = assay: 96 hour image-based assay; type: cell-based, Trypanosoma cruzi; conditions: for Emax: Trypanosoma cruzi
Procedure: The assay format was the same as the 48 hour assay, although plates were incubated for 96 hours. […] Two extra wash steps were included to remove as many extracellular parasites as possible to reduce impact on determination of intracellular parasites. […] Two experimental replicates were undertaken.

recombinant TcCYP51 = recombinant TcCYP51 (Trypanosoma cruzi, UniProt Q7Z1V1); type: biochemical
Procedure: The activity of compounds against TcCYP51 was determined at the University of Dundee as outlined previously. This assay utilises the fluorogenic probe benzyloxymethyloxycyanocoumarin (BOMCC), activated by TcCYP51. […] Preliminarily testing of MMV001239 was performed using this assay, with 1 replicate concentration response curve generated to establish whether it was a putative TcCYP51 inhibitor.
Compound IC50 values in the T. cruzi and HEK293 cell-based assays were determined using Prism 5.0 (GraphPad software), derived by a sigmoidal concentration response (variable slope) analysis. Compound IC50 values in the TcCYP51 in vitro assay were calculated in GraFit (Erithacus software) by non-linear slope analysis. All data are presented as mean ± standard deviation. The significance of % clearance of parasites at compound Emax concentrations was calculated in Prism 5.0, using an unpaired student’s t-test.

[5] = DMSO stocks (CF from solid sample), relative to nifurtimox control
[6] = Trypanosoma cruzi, DMSO stocks (CF from solid sample), relative to nifurtimox control, read-out: % activity (Emax)
[7] = Trypanosoma cruzi, NIH3T3, 48 h
[8] = difference 96 hours minus 48 hours

Chain of recombinant TcCYP51 (Q7Z1V1 whole entry): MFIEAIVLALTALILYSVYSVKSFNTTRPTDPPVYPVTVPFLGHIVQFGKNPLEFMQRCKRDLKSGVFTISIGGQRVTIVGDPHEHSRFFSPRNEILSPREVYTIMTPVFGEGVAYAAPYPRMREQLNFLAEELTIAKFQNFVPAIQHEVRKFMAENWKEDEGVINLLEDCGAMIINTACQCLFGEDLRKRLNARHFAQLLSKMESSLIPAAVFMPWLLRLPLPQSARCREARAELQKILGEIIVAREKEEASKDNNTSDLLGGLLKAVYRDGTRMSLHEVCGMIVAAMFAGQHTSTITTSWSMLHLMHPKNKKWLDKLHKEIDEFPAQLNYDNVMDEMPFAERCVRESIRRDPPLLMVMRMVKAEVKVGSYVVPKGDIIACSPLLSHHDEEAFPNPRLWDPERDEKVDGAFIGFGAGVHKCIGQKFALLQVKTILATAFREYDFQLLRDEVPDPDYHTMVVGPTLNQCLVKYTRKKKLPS

SMILES	IC50 (T. cruzi epimastigotes)	Emax (T. cruzi amastigotes [1])	% activity (Emax) (T. cruzi amastigotes [2]; [5])	Emax (T. cruzi amastigotes [2]; [6])	IC50 (T. cruzi amastigotes [2]; [7])	SI to HEK293 cells (HEK293 cells)	CC50 (3T3 host cells)	SI to 3T3 (3T3 host cells)	Emax (T. cruzi amastigotes [3])	also measured
CCc1ccc(NC(=O)N(Cc2cccnc2)Cc2ccccc2Cl)cc1 [Compound 1, 1-(2-Chlorobenzyl)-3-(4-ethylphenyl)-1-(3-pyridinylmethyl)urea]	–	–	–	84.5 ± 6.36%	3.48 ± 0.622 µM	–	> 18.3 µM	>5.26	–	–
CCOC(=O)C(=O)NCC(c1cccnc1)N1CCN(c2ccccc2)CC1 (centres unmarked) [Compound 2]	–	–	76.5 ± 3.54%	–	–	–	–	>8.43	–	IC50 (T. cruzi amastigotes [2]): 2.17 ± 0.499 µM; IC50 (recombinant TcCYP51; BOMCC probe, read-out: IC50 value against recombinant TcCYP51): 0.562 ± 0.13 µM
CC(=O)N1CCC(N(Cc2cccnc2)C(=O)Nc2ccc(Cl)cc2)CC1 [Compound 3, 1-(1-Acetyl-4-piperidinyl)-3-(4-chlorophenyl)-1-(3-pyridinylmethyl)urea]	–	–	–	70.5 ± 0.707%	1.29 ± 0.368 µM	–	> 18.3 µM	>14.2	–	–
CCOc1ccc(NC(=O)N(Cc2ccc(C)cc2)Cc2cccnc2)cc1 [Compound 4, 3-(4-Ethoxyphenyl)-1-(4-methylbenzyl)-1-(3-pyridinylmethyl)urea]	–	–	–	76 ± 1.41%	1.4 ± 0.0799 µM	–	> 18.3 µM	>13.1	–	–
Cc1ccc(CN(Cc2cccnc2)C(=O)Nc2ccc(Cl)c(Cl)c2)cc1 [Compound 5, 3-(3,4-Dichlorophenyl)-1-(4-methylbenzyl)-1-(3-pyridinylmethyl)urea]	–	–	–	88 ± 9.9%	1.8 ± 0.00354 µM	–	> 18.3 µM	>10.0	–	IC50 (T. cruzi amastigotes [2]): 1.82 ± 0.00354 µM
COc1ccc2sc(N(Cc3cccnc3)C(=O)c3ccc(C#N)cc3)nc2c1 [MMV001239]	–	–	–	–	–	–	–	–	–	percentage activity at the Emax, 48 hours incubation (temporal experiments, Fig. 3) (T. cruzi amastigotes [2]; n of 4): 85 ± 6.4% and 84.8%; IC50 (recombinant TcCYP51; single concentration response curve, read-out: IC50 value against recombinant TcCYP51, preliminary): 0.046 µM
CC[C@@H]([C@H](C)O)n1ncn(-c2ccc(N3CCN(c4ccc(OC[C@@H]5CO[C@@](Cn6cncn6)(c6ccc(F)cc6F)C5)cc4)CC3)cc2)c1=O [POSA, posaconazole]	–	< 50%	–	70 ± 8.49%	–	–	1 µM	–	94%	Emax (T. cruzi amastigotes [2]; Trypanosoma cruzi, n of 4, read-out: percentage activity at the Emax, 48 hours incubation (temporal experiments, Fig. 3)): 75.3%; Emax (T. cruzi amastigotes [4]; 96 hours, n of 2, read-out: reduction in infected cells at the Emax, 96 hours exposure): 96.5%; Emax (T. cruzi amastigotes [4]; difference 96 hours minus 48 hours, read-out: increase in activity at the Emax from 48 to 96 hours incubation): 21.3%
COc1ccc(C[C@H](N)C(=O)N[C@H]2[C@@H](O)[C@H](n3cnc4c(N(C)C)ncnc43)O[C@@H]2CO)cc1 [PURO, puromycin]	0.566 ± 0.141 µM	–	–	–	2.01 ± 0.329 µM	0.386	–	1.36	–	–

Now from value to molecule, other results behind:

IC50 (T. cruzi epimastigotes)	SMILES	Emax (T. cruzi amastigotes [1])	% activity (Emax) (T. cruzi amastigotes [2]; [5])	Emax (T. cruzi amastigotes [2]; [6])	IC50 (T. cruzi amastigotes [2]; [7])	SI to HEK293 cells (HEK293 cells)	CC50 (3T3 host cells)	SI to 3T3 (3T3 host cells)	Emax (T. cruzi amastigotes [3])	also measured
5.78 ± 0.477 µM	O=C(Cn1ccnc1[N+](=O)[O-])NCc1ccccc1 [BZ, benznidazole]	100%	99.5 ± 2.12%	100%	3.56 ± 2.34 µM	>26.1	> 127 µM	>35.7	100%	IC50 (T. cruzi amastigotes [1]): 7.56 ± 2.37 µM; increase in activity at the Emax from 48 to 96 hours incubation (T. cruzi amastigotes [4]; [8]): no difference
1.11 ± 0.131 µM	CC1CS(=O)(=O)CCN1/N=C/c1ccc([N+](=O)[O-])o1 (centres unmarked) [NFX, nifurtimox]	100%	102 ± 1.41%	100%	0.709 ± 0.161 µM	>136	> 127 µM	>179	100%	IC50 (T. cruzi amastigotes [1]): 1.2 ± 0.0213 µM; increase in activity at the Emax from 48 to 96 hours incubation (T. cruzi amastigotes [4]; [8]): no difference

Source: paper PMC5861127, “3-pyridyl inhibitors with novel activity against Trypanosoma cruzi reveal in vitro profiles can aid prediction of putative cytochrome P450 inhibition” (Scientific Reports, 2018)
